Here are results for six compounds from patent US9822336B2, “Blastoid, cell line based artificial blastocyst” (Universiteit Maastricht, priority 2013, dated 2017).

Assay type in all cases: cell-based, mouse
Test [1] has as its system inner cell mass (ICM) of blastoids. Nature of the test: Size of inner cell mass (ICM) in cavitated blastoids, projection area. Conditions: up to a concentration of 1000 μM (FIG. 4f). From the text: FIG. 4d: size of inner cell mass (ICM) as a function of the average number of ES-cells seeded per microwell. Size of ICM, measured as the projection area of the ES cell cluster inside the cavitated blastoid, increases with increasing numbers of ES cells seeded per microwell.
The size of the inner cell mass (ICM) depends on the average number of ES-cells seeded, and increases with the number of ES-cells seeded per microwell as described in FIG. 4. The size as defined by its projection area is generally between 1000 and 5000 um^2, preferably between 2000 and 4500 um^2. The size is conveniently expressed by determining the projection area (in um^2) of the ICM through light microscopy.

Test [2] has as its system ES-TS cell clusters. Nature of the test: Cavitation of ES-TS cell clusters (yield of cavitated blastoids). To be noted: for yield of blastoids cavitation: FIG. 4i, added to CHIR99021 3 uM, versus control with CHIR99021 3 uM only; for yield of cavitated blastoids / cavitation: FIG. 4h. On the procedure: FIG. 4c: […], The yield of cavitated blastoids is described by the percentage of ES-TS cell clusters that were cavitated after 96 hours of culture, thus forming an artificial blastocyst or blastoid. […]
The efficiency of blastoid formation is measured as the percentage of cavitated structures with (1) an external cellular layer expressing the transcription factors CDX2, Eomes and GATA3 and (2) an internal cellular aggregate expressing the transcription factors Oct4 and Sox2 and at least partly Nanog.
The formation of a cavity is assessed by the formation of a volume within the aggregate that is not occupied by cellular nucleus. The formation of a cavity is preferably assessed using the cross-sectional section of a cellular aggregate stained with a nuclear-specific dye (for example DAPI).
• Double layer formation: the formation of an (at least) double layered cell aggregate with an external layer of TS cells and an inner layer of ES cells is evaluated using transgenic cell lines. Specifically, ES cells were transfected with Histone 2B and a Red Fluorescent Protein under the control of a cytomegalovirus promoter and clonally derived. The H2B-RFP ES cells are thus constitutively expressing a red fluorescence within their nucleus which allows for their tracking. • TS cells were derived from a mouse constitutively expressing Green Fluorescent Protein (GFP) under the control of a cytomegalovirus promoter in all cells. The GFP TS cells are thus expressing a green fluorescence in their cytoplasma which allows for their tracking. • The formation of a double-layered aggregate is thus assessed by observing a green outer layer of cells and a red inner layer of cells. The efficiency of engulfment is determined as the percentage of green-colored projection area (representing the TS cell layer) that overlaps with an artificial 3-pixel-wide ring drawn around the red-colored projection area (representing the inner aggregate of ES cells) after 24 hours of culturing the ES-TS cell clusters. The said efficiency of engulfment described in FIG. 4 represents the average value taken from approximately 200 ES-TS cell clusters. • Cavitation: The formation of a cavity is assessed by the formation of a volume within the aggregate that is not occupied by cellular nucleus. The formation of a cavity is preferably assessed using the cross-sectional section of a cellular aggregate stained with a nuclear-specific dye (for example DAPI). […] The expression of cdx2 is assessed as the number of GFP positive cells with a cdx2 positive nucleus per 10 μm microscopic section. The expression of the transcription factors Oct4 and Nanog is assessed by conventional immunocytochemistry in ES-TS aggregates including H2B-RFP expressing ES cells. The expression of Oct4 and Nanog is assessed as the number of H2B-RFP positive cells with an Oct4 or Nanog positive nucleus per 10 μm microscopic section. Pictoral Summary of the Procedure for Blastoid Formation: […]

Test [3] concerns ES-TS cell clusters. Nature of the test: Efficiency of engulfment during formation of ES-TS cell clusters. To be noted: at higher concentration of Y27632; after 24 hours of culture (FIG. 4a). On the procedure:
Mouse TS-cells were seeded at 17 cells/microwell in 150 μL B27N2 medium. After 20 minutes, 1 ml of B27N2 medium was added that included 10% FBS, Y27632 20 μM, 8Br-cAMP (1 mM), 007-AM (1 nM) and CHIR 3 μM, FGF4 15 ng/ml, Tgfb1 5 ng/ml, IGF2, 10 ng/ml, estradiol 10 ng/ml. The cells were placed in an incubator set at 37° Celsius to form the ES-TS cell cluster. • Double layer formation: the formation of an (at least) double layered cell aggregate with an external layer of TS cells and an inner layer of ES cells is evaluated using transgenic cell lines. […] The H2B-RFP ES cells are thus constitutively expressing a red fluorescence within their nucleus which allows for their tracking. • TS cells were derived from a mouse constitutively expressing Green Fluorescent Protein (GFP) under the control of a cytomegalovirus promoter in all cells. The GFP TS cells are thus expressing a green fluorescence in their cytoplasma which allows for their tracking. • The formation of a double-layered aggregate is thus assessed by observing a green outer layer of cells and a red inner layer of cells. […] The said efficiency of engulfment described in FIG. 4 represents the average value taken from approximately 200 ES-TS cell clusters. • Cavitation: The formation of a cavity is assessed by the formation of a volume within the aggregate that is not occupied by cellular nucleus. […]

Test [4] concerns Cdx2 expression in trophoblast stem cells of ES-TS aggregates. The test is described as follows: Cdx2 expression by CDX2 immunostaining. Conditions: CDX2 immunostaining (FIG. 4g). On the procedure:
• Double layer formation: the formation of an (at least) double layered cell aggregate with an external layer of TS cells and an inner layer of ES cells is evaluated using transgenic cell lines. Specifically, ES cells were transfected with Histone 2B and a Red Fluorescent Protein under the control of a cytomegalovirus promoter and clonally derived. The H2B-RFP ES cells are thus constitutively expressing a red fluorescence within their nucleus which allows for their tracking. • TS cells were derived from a mouse constitutively expressing Green Fluorescent Protein (GFP) under the control of a cytomegalovirus promoter in all cells. The GFP TS cells are thus expressing a green fluorescence in their cytoplasma which allows for their tracking. • The formation of a double-layered aggregate is thus assessed by observing a green outer layer of cells and a red inner layer of cells. The efficiency of engulfment is determined as the percentage of green-colored projection area (representing the TS cell layer) that overlaps with an artificial 3-pixel-wide ring drawn around the red-colored projection area (representing the inner aggregate of ES cells) after 24 hours of culturing the ES-TS cell clusters. […] The formation of a cavity is preferably assessed using the cross-sectional section of a cellular aggregate stained with a nuclear-specific dye (for example DAPI). […]

For `Nc1ncnc2c1nc(Br)n2[C@@H]1O[C@@H]2COP(=O)(O)O[C@H]2[C@H]1O` [8Br-cAMP], the “size of ICM” value in test [1] is “positively correlates with an increase in the size of ICM”. In addition, the yield of cavitation entry in the test with ES-TS cell clusters [2] (8Br-cAMP 0.1-10 mM, for example 1 mM) was “increases the yield of cavitation”. Further, in the test with ES-TS cell clusters [2], the “yield of blastoids cavitation” value is given as “increase the yield of blastoids cavitation”.
Turning to `Cc1c[nH]c(-c2cnc(NCCNc3ccc(C#N)cn3)nc2-c2ccc(Cl)cc2Cl)n1` [CHIR99021, 6-{2-[4-(2,4-dichloro-phenyl)-5-(4-methyl-1H-imidazol-2-yl)-pyrimidin-2-ylamino]-ethylamino}-nicotinonitrile], the blastoid yield was 10% with ES-TS cell clusters [2] (CHIR99021 at 3 uM) and roughly 30% in the test on ES-TS cell clusters [2] (CHIR99021 at 20 uM). Moreover, in the test on ES-TS cell clusters [2] (CHIR99021 at 3 uM), the “yield of cavitated blastoids / cavitation” value was “increases the yield of cavitated blastoids”. Further, the “yield of cavitated blastoids” value with ES-TS cell clusters [2] (increasing concentrations (FIG. 4e)) is listed as “positively correlate with an increase in the yield of cavitated blastoids”.
`CC(C)[C@H]1C(=O)N[C@H](CO)Cc2c[nH]c3cccc(c23)N1C` [Indolactam V]: the “yield of blastoids cavitation” value in the test with ES-TS cell clusters [2] is given as “increase the yield of blastoids cavitation”. Besides, in the test with ES-TS cell clusters [2] (Indolactam V 0.1-10 uM, for example 1 uM), the yield of cavitation result is given as “increases the yield of cavitation”.
For the compound `Oc1nc(-c2ccc(C(F)(F)F)cc2)nc2c1CSCC2` [XAV939], in the test with ES-TS cell clusters [2] (CHIR99021 at 3 uM), the “yield of cavitated blastoids / cavitation” value is “prevents the cavitation of blastoids”.
Regarding `C[C@@H](N)[C@H]1CC[C@H](C(=O)Nc2ccncc2)CC1` [Y27632, (1R,4r)-4-((R)-1-aminoethyl)-N-(pyridin-4-yl)cyclohexanecarboxamide], the efficiency of engulfment entry in the test on ES-TS cell clusters [3] is recorded as “increase in efficiency of engulfment”.
For “IGF2: a protein and a growth factor known in the art to activate the Akt pathway”, the Cdx2 expression entry in test [4] is reported as “positively correlates with an increase of Cdx2 expression”.
